Data published in patent publication US11725036B2, “Modified lipidated relaxin B chain peptides and their therapeutic use” (Sanofi, priority 2018, dated 2023).
Values after ≈ are worked out from the molar mass of the structure shown. Read-outs that look alike come from different tables or passages of the source. Starred links: 1 amine or outer side, 2 acyl side, 3 side chain; linkers in the order of their positions; H or OH if unused. Non-standard residues stand in square brackets, D forms with d. Residues, ends and D or L forms follow the SMILES beside them. Groups on a side chain read outwards from the residue. *: point of attachment. X10 = CCCCCCCCCCCCCC(=O)N[C@@H](CCC(=O)N[C@@H](CCC(=O)N[C@@H](CCC(=O)N[C@@H](CCC(=O)NCCCOCCOCCOCCCNC(=O)CCC(=O)NCCCOCCOCCOCCCNC(=O)CCC(=O)NCCCOCCOCCOCCCN*)C(=O)O)C(=O)O)C(=O)O)C(=O)O; X6 = CCCCCCCCCCCCCC(=O)N[C@@H](CCC(=O)N[C@@H](CCC(=O)N[C@@H](CCC(=O)NCCCOCCOCCOCCCNC(=O)CCC(=O)NCCCOCCOCCOCCCNC(=O)CCC(=O)NCCCOCCOCCOCCCN*)C(=O)O)C(=O)O)C(=O)O; X2 = CCCCCCCCCCCCCCCC(=O)N[C@@H](CCC(=O)N[C@@H](CCC(=O)N[C@@H](CCC(=O)NCCCOCCOCCOCCCNC(=O)CCC(=O)NCCCOCCOCCOCCCN*)C(=O)O)C(=O)O)C(=O)O; γGlu = O=C(O)[C@H](CCC(=O)[*:2])N[*:1]; Palmitoyl = CCCCCCCCCCCCCCCC(=O)*; Suc = O=C(CCC(=O)[*:2])[*:1]; αMeK = C[C@](N)(CCCCN)C(=O)O; AEEA = NCCOCCOCC(=O)O; Aib = CC(C)(N)C(=O)O

Legend:
RXFP1 = target: T1, RXFP1 (Homo sapiens, UniProt Q9HBX9); test: OVCAR5 cAMP assay (HTRF); type: cell-based; conditions: for EC50: OVCAR 5 cells expressing endogenous RXFP1, cAMP readout; for Emax: OVCAR 5 cells, maximal cAMP relative to H2-relaxin
T1 construct: OVCAR5 cells expressing endogenous RXFP1; endogenous in cells; host or cells: OVCAR5
T1 sequence (Q9HBX9 1-757): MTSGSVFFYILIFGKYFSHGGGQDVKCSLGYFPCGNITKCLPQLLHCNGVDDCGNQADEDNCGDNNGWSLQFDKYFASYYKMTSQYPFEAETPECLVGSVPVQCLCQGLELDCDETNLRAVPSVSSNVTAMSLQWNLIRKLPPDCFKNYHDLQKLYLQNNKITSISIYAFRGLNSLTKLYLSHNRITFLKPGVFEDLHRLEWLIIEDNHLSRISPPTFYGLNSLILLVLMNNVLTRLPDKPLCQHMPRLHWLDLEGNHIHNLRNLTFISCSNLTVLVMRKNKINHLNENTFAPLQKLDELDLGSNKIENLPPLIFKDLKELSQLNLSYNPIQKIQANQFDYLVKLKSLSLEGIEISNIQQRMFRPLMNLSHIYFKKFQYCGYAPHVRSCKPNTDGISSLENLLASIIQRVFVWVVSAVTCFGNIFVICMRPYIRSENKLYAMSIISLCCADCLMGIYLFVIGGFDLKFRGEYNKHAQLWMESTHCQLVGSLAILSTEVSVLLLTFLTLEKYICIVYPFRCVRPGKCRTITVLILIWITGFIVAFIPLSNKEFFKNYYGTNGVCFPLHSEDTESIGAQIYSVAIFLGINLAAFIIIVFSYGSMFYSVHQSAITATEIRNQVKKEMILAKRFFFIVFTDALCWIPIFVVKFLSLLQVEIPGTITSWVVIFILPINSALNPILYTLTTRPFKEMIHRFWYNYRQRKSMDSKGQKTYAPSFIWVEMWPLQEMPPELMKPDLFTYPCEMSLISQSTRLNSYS
In short: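 Endogenous RXFP1 in OVCAR5 cells, pretreated 40 min at 37° C with 1 mM IBMX, then exposed to increasing peptide concentrations in serum-free medium for 30 min at 37° C. cAMP read by HTRF; EC50 by variable-slope sigmoidal fit, Emax as % of H2-relaxin maximal cAMP in same run.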

[1] = Solubility testing in buffer; type: physicochemical; conditions: target solubility 10.0 mg/ml
Procedure: Prior to the testing of solubility of a peptide batch, its purity (HPLC-UV) was determined.
Acetate Buffer 50 mM pH4.5: 0.75 g C2H3C02Na,3H2O (Sigma S7545)+0.35 ml CH3CO2H 100% solution dissolved in Millipore water, adjusted to pH with diluted (1:1) CH3CO2H and diluted to 250 ml with Millipore water.
In a 4 ml Ependorph vial, an accurately weighed sample of compound was diluted in study media to obtain target concentration of 2, 6 or 10 mg/ml of pure compound. The sample vials were shacked (rock 'roll shaker) for ˜19 h. 300 μL aliquots were filtered through a Millipore “Solvinert” plate (0.45 μm-PTFE hydrophilic).
pH was measured with a micro electrode
Waters Acquity UPLC System with DAD detector
Column: Waters Peptide Column CSH C18 (130 Å; 1.7 μm; 50*2.1 mm)
Column temperature: 60° C.
Full loop (about 5 μL)—overfill factor 5
Weak et Strong wash: H2O/ACN (75/25; V/V); Seal wash: H2O/IsOH (95/5; V/V). Mobile phase:
Solvent A: 0.05% TFA in H2O; Solvent B: 0.035% TFA in CH3CN
Gradient: from 0 to 12 min B=2% to 60%, from 12 to 14 min B=60% to 100%. Column washing 100% B 1 min, column equilibration 2% B 2.5 min.
UV detector: wavelength: 220 nm.

[2] = acetate buffer 50 mM pH 4.5, read-out: Solubility Acetate buffer pH 4.5
[3] = phosphate buffer 50 mM pH 7.4, read-out: Solubility phosphate buffer pH 7.4

Compound	EC50 (RXFP1)	Emax (RXFP1)	solubility [1, 2]	solubility [1, 3]
CCCCCCCCCCCCCCCC(=O)N[C@@H](CCC(=O)N[C@@H](CCC(=O)N[C@@H](CCC(=O)NCCOCCOCC(=O)NCCOCCOCC(=O)NCCOCCOCC(=O)NCCOCCOCC(=O)NCCCC[C@H](NC(=O)CNC(=O)[C@H](CCC(=O)O)NC(=O)C(C)(C)NC(=O)C(C)(C)NC(=O)[C@@H](NC(=O)[C@H](CCCCNC(C)=O)NC(=O)[C@H](C)NC(=O)[C@H](CCCNC(=N)N)NC(=O)[C@@H](NC(=O)[C@H](CCCCN)NC(=O)[C@H](CCC(=O)O)NC(=O)[C@H](CCCNC(=N)N)NC(=O)CNC(=O)[C@H](CCC(=O)O)NC(=O)[C@H](CC(C)C)NC(C)=O)C(C)C)[C@@H](C)CC)C(=O)N[C@@H](CO)C(=O)N[C@H](C(=O)N[C@@H](Cc1c[nH]c2ccccc12)C(=O)N[C@@H](CO)C(=O)NC(C)(C)C(=O)N[C@@H](CCCNC(=N)N)C(=O)N[C@@H](CCCCN)C(=O)N[C@@H](CCCCNC(C)=O)C(N)=O)[C@@H](C)O)C(=O)O)C(=O)O)C(=O)O [compound 5] (Ac-LEGREKVRAK(Ac)I[Aib][Aib]EGK([AEEA-AEEA-AEEA-AEEA-γGlu-γGlu-γGlu-Palmitoyl])STWS[Aib]RKK(Ac)-NH2)	9.1 nM	85%	6240 µg/mL (≈ 1530 µM)	6410 µg/mL (≈ 1570 µM)
CCCCCCCCCCCCCCCC(=O)N[C@@H](CCC(=O)N[C@@H](CCC(=O)N[C@@H](CCC(=O)NCCCOCCOCCOCCCNC(=O)CCC(=O)NCCCOCCOCCOCCCNC(=O)CCC(=O)NCCCC[C@H](NC(=O)CNC(=O)[C@H](CCC(=O)O)NC(=O)C(C)(C)NC(=O)C(C)(C)NC(=O)[C@@H](NC(=O)[C@H](CCCCNC(C)=O)NC(=O)[C@H](C)NC(=O)[C@H](CCCNC(=N)N)NC(=O)[C@@H](NC(=O)[C@H](CCCCN)NC(=O)[C@H](CCC(=O)O)NC(=O)[C@H](CCCNC(=N)N)NC(=O)CNC(=O)[C@H](CCC(=O)O)NC(=O)[C@H](CC(C)C)NC(C)=O)C(C)C)[C@@H](C)CC)C(=O)N[C@@H](CO)C(=O)N[C@H](C(=O)N[C@@H](Cc1ccccc1)C(=O)N[C@@H](CO)C(=O)N[C@H](CCCCN)C(=O)N[C@@H](CCCNC(=N)N)C(=O)N[C@@H](C)C(=O)N[C@@H](CCCCNC(C)=O)C(N)=O)[C@@H](C)O)C(=O)O)C(=O)O)C(=O)O [compound 16] (Ac-LEGREKVRAK(Ac)I[Aib][Aib]EGK([Suc-X2])STFS[dK]RAK(Ac)-NH2)	6.8 nM	88%	6330 µg/mL (≈ 1560 µM)	6720 µg/mL (≈ 1660 µM)
CCCCCCCCCCCCCCCC(=O)N[C@@H](CCC(=O)N[C@@H](CCC(=O)N[C@@H](CCC(=O)NCCCOCCOCCOCCCNC(=O)CCC(=O)NCCCOCCOCCOCCCNC(=O)CCC(=O)NCCCC[C@H](NC(=O)CNC(=O)[C@H](CCC(=O)O)NC(=O)C(C)(C)NC(=O)C(C)(C)NC(=O)[C@@H](NC(=O)[C@H](CCCCNC(C)=O)NC(=O)[C@H](C)NC(=O)[C@H](CCCNC(=N)N)NC(=O)[C@@H](NC(=O)[C@H](CCCCN)NC(=O)[C@H](CCC(=O)O)NC(=O)[C@H](CCCNC(=N)N)NC(=O)CNC(=O)[C@H](CCC(=O)O)NC(=O)[C@H](CC(C)C)NC(C)=O)C(C)C)[C@@H](C)CC)C(=O)N[C@@H](CO)C(=O)N[C@H](C(=O)N[C@@H](Cc1c[nH]c2ccccc12)C(=O)N[C@@H](CO)C(=O)N[C@H](CCCCN)C(=O)N[C@@H](CCCNC(=N)N)C(=O)N[C@@H](C)C(=O)N[C@@H](CCCCNC(C)=O)C(N)=O)[C@@H](C)O)C(=O)O)C(=O)O)C(=O)O [compound 17] (Ac-LEGREKVRAK(Ac)I[Aib][Aib]EGK([Suc-X2])STWS[dK]RAK(Ac)-NH2)	4.6 nM	91%	9220 µg/mL (≈ 2260 µM)	6810 µg/mL (≈ 1670 µM)
CCCCCCCCCCCCCC(=O)N[C@@H](CCC(=O)N[C@@H](CCC(=O)N[C@@H](CCC(=O)NCCCOCCOCCOCCCNC(=O)CCC(=O)NCCCOCCOCCOCCCNC(=O)CCC(=O)NCCCOCCOCCOCCCNC(=O)CCC(=O)NCCCC[C@H](NC(=O)CNC(=O)[C@H](CCC(=O)O)NC(=O)C(C)(C)NC(=O)C(C)(C)NC(=O)[C@@H](NC(=O)[C@H](CCCCNC(C)=O)NC(=O)[C@H](C)NC(=O)[C@H](CCCNC(=N)N)NC(=O)[C@@H](NC(=O)[C@H](CCCCN)NC(=O)[C@H](CCC(=O)O)NC(=O)[C@H](CCCNC(=N)N)NC(=O)CNC(=O)[C@H](CCC(=O)O)NC(=O)[C@H](CC(C)C)NC(C)=O)C(C)C)[C@@H](C)CC)C(=O)N[C@@H](CO)C(=O)N[C@H](C(=O)N[C@@H](Cc1ccccc1)C(=O)N[C@@H](CO)C(=O)N[C@@](C)(CCCCN)C(=O)N[C@@H](CCCNC(=N)N)C(=O)N[C@@H](C)C(=O)N[C@@H](CCCCNC(C)=O)C(N)=O)[C@@H](C)O)C(=O)O)C(=O)O)C(=O)O [compound 95] (Ac-LEGREKVRAK(Ac)I[Aib][Aib]EGK([Suc-X6])STFS[αMeK]RAK(Ac)-NH2)	1.8 nM	91%	–	–
CCCCCCCCCCCCCC(=O)N[C@@H](CCC(=O)N[C@@H](CCC(=O)N[C@@H](CCC(=O)NCCCOCCOCCOCCCNC(=O)CCC(=O)NCCCOCCOCCOCCCNC(=O)CCC(=O)NCCCOCCOCCOCCCNC(=O)CCC(=O)NCCCC[C@H](NC(=O)CNC(=O)[C@H](CCC(=O)O)NC(=O)C(C)(C)NC(=O)C(C)(C)NC(=O)[C@@H](NC(=O)[C@H](CCCCNC(C)=O)NC(=O)[C@H](C)NC(=O)[C@H](CCCNC(=N)N)NC(=O)[C@@H](NC(=O)[C@H](CCCCN)NC(=O)[C@H](CCC(=O)O)NC(=O)[C@H](CCCNC(=N)N)NC(=O)CNC(=O)[C@H](CCC(=O)O)NC(=O)[C@H](CC(C)C)NC(C)=O)C(C)C)[C@@H](C)CC)C(=O)N[C@@H](CO)C(=O)N[C@H](C(=O)N[C@@H](Cc1ccccc1)C(=O)N[C@@H](CO)C(=O)N[C@@](C)(CCCCN)C(=O)N[C@@H](CCCNC(=N)N)C(=O)N[C@@H](C)C(=O)N[C@@H](CCCCN)C(N)=O)[C@@H](C)O)C(=O)O)C(=O)O)C(=O)O [compound 96] (Ac-LEGREKVRAK(Ac)I[Aib][Aib]EGK([Suc-X6])STFS[αMeK]RAK-NH2)	0.88 nM	92%	–	–
CCCCCCCCCCCCCC(=O)N[C@@H](CCC(=O)N[C@@H](CCC(=O)N[C@@H](CCC(=O)N[C@@H](CCC(=O)NCCCOCCOCCOCCCNC(=O)CCC(=O)NCCCOCCOCCOCCCNC(=O)CCC(=O)NCCCOCCOCCOCCCNC(=O)CCC(=O)NCCCC[C@H](NC(=O)CNC(=O)[C@H](CCC(=O)O)NC(=O)C(C)(C)NC(=O)C(C)(C)NC(=O)[C@@H](NC(=O)[C@H](CCCCNC(C)=O)NC(=O)[C@H](C)NC(=O)[C@H](CCCNC(=N)N)NC(=O)[C@@H](NC(=O)[C@H](CCCCN)NC(=O)[C@H](CCC(=O)O)NC(=O)[C@H](CCCNC(=N)N)NC(=O)CNC(=O)[C@H](CCC(=O)O)NC(=O)[C@H](CC(C)C)NC(C)=O)C(C)C)[C@@H](C)CC)C(=O)N[C@@H](CO)C(=O)N[C@H](C(=O)N[C@@H](Cc1ccccc1)C(=O)N[C@@H](CO)C(=O)N[C@@](C)(CCCCN)C(=O)N[C@@H](CCCNC(=N)N)C(=O)N[C@@H](C)C(=O)N[C@@H](CCCCN)C(N)=O)[C@@H](C)O)C(=O)O)C(=O)O)C(=O)O)C(=O)O [compound 97] (Ac-LEGREKVRAK(Ac)I[Aib][Aib]EGK([Suc-X10])STFS[αMeK]RAK-NH2)	0.29 nM	98%	–	–
